Like-named read-outs stand apart in the source and are kept apart here.
Experiments:
[1] = Worst-case calculation, Application 2 cheese packaging wrap exposure scenario; conditions: 100% migration, 2.0 g/m^2 dry film
[2] = Worst-case calculation, Application 1 yoghurt pot lid exposure scenario; conditions: 100% migration, 2.0 g/m^2 dry film
[3] = Worst-case calculation (100% migration), standard EU Cube exposure model; conditions: 100% migration; for Worst-case calculation as a percentage of SML (or restriction), EU Cube: 2.0 g/m^2 dry film; for Worst Case Calculation of migration in EU Cube model (as a percentage of SML): dry coat weight 2.0 g/m^2
[4] = Specific migration limit (SML) from regulation or hazard assessment (TTC, VEGA QSAR, Cramer Class); conditions: source HA (internal hazard assessment), self-derived SML; EU Cube model
[5] = cited from earlier work
[6] = substance in ink SBDEV977 (Ex. 4A Yellow)
[7] = substance in ink SBDEV980 (Ex. 4B Red)

| Worst-case calculation as a percentage of SML (or restriction), Application 2 ([1]; product SBDEV977) | Worst-case calculation as a percentage of SML (or restriction), Application 2 ([1]; product SBDEV1287) | Worst-case calculation as a percentage of SML (or restriction), Application 1 ([2]; product SBDEV977) | Worst-case calculation as a percentage of SML (or restriction), Application 1 ([2]; product SBDEV1287) | Worst-case calculation as a percentage of SML (or restriction), EU Cube ([3]; product SBDEV977) | Worst-case calculation as a percentage of SML (or restriction), EU Cube ([3]; product SBDEV1287) | Worst Case Calculation of migration in EU Cube model (as a percentage of SML) [3, 6] | SML or Restriction (mg substance/kg food) [4] [mg substance/kg food] | Worst-case calculation as a percentage of SML (or restriction), Application 2 ([1]; product SBDEV980) | Worst-case calculation as a percentage of SML (or restriction), Application 2 ([1]; product SBDEV1285) | Worst-case calculation as a percentage of SML (or restriction), Application 1 ([2]; product SBDEV980) | Worst-case calculation as a percentage of SML (or restriction), Application 1 ([2]; product SBDEV1285) | Worst-case calculation as a percentage of SML (or restriction), EU Cube ([3]; product SBDEV980) | Worst-case calculation as a percentage of SML (or restriction), EU Cube ([3]; product SBDEV1285) | Worst Case Calculation of migration in EU Cube model (as a percentage of SML) [3, 7] | SMILES | also measured |
| --- | --- | --- | --- | --- | --- | --- | --- | --- | --- | --- | --- | --- | --- | --- | --- | --- |
|  |  |  |  |  |  |  | 0.09 | 10.1 percentage of SML (or restriction) | 10.1 percentage of SML (or restriction) | 2.8 percentage of SML (or restriction) | 2.8 percentage of SML (or restriction) | 7 percentage of SML (or restriction) | 7 percentage of SML (or restriction) | 7 percentage of SML | O=C(O)c1ccc(-c2ccccc2)cc1 [0000092-92-2, 4-Phenylbenzoic Acid] |  |
|  |  |  |  |  |  |  |  |  |  |  |  |  |  | 380 percentage of SML | O=C(O)c1c(-c2ccc(-c3ccccc3)cc2)[nH]c2nc(-c3ccc(-c4ccccc4)cc3)nc(-c3ccc(-c4ccccc4)cc3)c12 [2,4,6-Tris-Biphenyl-4-Yl-7H-Pyrrolo[2,3-D]Pyrimidine-5-Carboxylic Acid] | SML (or restriction) ([5]; Source of SML or restriction: Default 10 ppb): 0.01 mg substance/kg food; SML or Restriction (mg substance/kg food) ([5]; source Default 10 ppb): 0.01 mg substance/kg food |

Continued, molecule first:

| SMILES | Worst-case calculation as a percentage of SML (or restriction), Application 2 ([1]; product SBDEV977) | Worst-case calculation as a percentage of SML (or restriction), Application 2 ([1]; product SBDEV1287) | Worst-case calculation as a percentage of SML (or restriction), Application 1 ([2]; product SBDEV977) | Worst-case calculation as a percentage of SML (or restriction), Application 1 ([2]; product SBDEV1287) | Worst-case calculation as a percentage of SML (or restriction), EU Cube ([3]; product SBDEV977) | Worst-case calculation as a percentage of SML (or restriction), EU Cube ([3]; product SBDEV1287) | Worst Case Calculation of migration in EU Cube model (as a percentage of SML) [3, 6] | SML or Restriction (mg substance/kg food) [4] [mg substance/kg food] | Worst-case calculation as a percentage of SML (or restriction), Application 2 ([1]; product SBDEV980) | Worst-case calculation as a percentage of SML (or restriction), Application 2 ([1]; product SBDEV1285) | Worst-case calculation as a percentage of SML (or restriction), Application 1 ([2]; product SBDEV980) | Worst-case calculation as a percentage of SML (or restriction), Application 1 ([2]; product SBDEV1285) | Worst-case calculation as a percentage of SML (or restriction), EU Cube ([3]; product SBDEV980) | Worst-case calculation as a percentage of SML (or restriction), EU Cube ([3]; product SBDEV1285) | Worst Case Calculation of migration in EU Cube model (as a percentage of SML) [3, 7] | also measured |
| --- | --- | --- | --- | --- | --- | --- | --- | --- | --- | --- | --- | --- | --- | --- | --- | --- |
| O=C1NC(=O)c2ccccc21 [0000085-41-6, Phthalimide] | 1382.4 percentage of SML (or restriction) | 1368.0 percentage of SML (or restriction) | 377.6 percentage of SML (or restriction) | 373.7 percentage of SML (or restriction) | 960 percentage of SML (or restriction) | 950 percentage of SML (or restriction) | 960 percentage of SML | 0.09 |  |  |  |  |  |  |  |  |
| CCCC1OC(CCC)OC(CCC)O1 (stereo not shown) [0002396-43-2, 2,4,6-tripropyl-1,3,5-Trioxane] | 96.5 percentage of SML (or restriction) | 97.9 percentage of SML (or restriction) | 26.4 percentage of SML (or restriction) | 26.7 percentage of SML (or restriction) | 67 percentage of SML (or restriction) | 68 percentage of SML (or restriction) | 67 percentage of SML | 0.09 | 95.0 percentage of SML (or restriction) | 96.5 percentage of SML (or restriction) | 26.0 percentage of SML (or restriction) | 26.4 percentage of SML (or restriction) | 60 percentage of SML (or restriction) | 67 percentage of SML (or restriction) | 66 percentage of SML | Worst-case calculation as a percentage of SML (or restriction), Application 2 ([1]; product SBDEV976): 87.8 percentage of SML (or restriction); Worst-case calculation as a percentage of SML (or restriction), Application 2 ([1]; product SBDEV1284): 95.0 percentage of SML (or restriction); Worst-case calculation as a percentage of SML (or restriction), Application 2 ([1]; product SBDEV1286): 87.8 percentage of SML (or restriction); Worst-case calculation as a percentage of SML (or restriction), Application 1 ([2]; product SBDEV976): 24.0 percentage of SML (or restriction); Worst-case calculation as a percentage of SML (or restriction), Application 1 ([2]; product SBDEV1284): 26.0 percentage of SML (or restriction); Worst-case calculation as a percentage of SML (or restriction), Application 1 ([2]; product SBDEV1286): 24.0 percentage of SML (or restriction); Worst-case calculation as a percentage of SML (or restriction), EU Cube ([3]; product SBDEV976): 61 percentage of SML (or restriction); Worst-case calculation as a percentage of SML (or restriction), EU Cube ([3]; product SBDEV1284): 66 percentage of SML (or restriction); Worst-case calculation as a percentage of SML (or restriction), EU Cube ([3]; product SBDEV1286): 61 percentage of SML (or restriction); Worst Case Calculation of migration in EU Cube model (as a percentage of SML) ([3]; substance in ink SBDEV976 (Ex. 4C Cyan)): 61 percentage of SML; Worst Case Calculation of migration in EU Cube model (as a percentage of SML) ([3]; substance in ink SBDEV979 (Ex. 4D Black)): 65 percentage of SML |
| CCCCCCCC/C=C\CCCCCCCC(=O)N(CCO)CCO [0000093-83-4, N,N-Bis(2-hydroxyethyl) oleamide] | 99.4 percentage of SML (or restriction) | 97.9 percentage of SML (or restriction) | 27.1 percentage of SML (or restriction) | 26.7 percentage of SML (or restriction) | 69 percentage of SML (or restriction) | 68 percentage of SML (or restriction) | 69 percentage of SML | 0.09 |  |  |  |  |  |  |  |  |
| CCO [ethanol] |  |  |  |  |  |  |  |  |  |  |  |  |  |  |  | SML (or restriction) ([5]; Source of SML or restriction: PR (EU Plastics Regulation No. 10/2011)): 60 mg substance/kg food; SML (or restriction) ([5]; source of SML or restriction: PR (EU Plastics Regulation No. 10/2011)): 60 mg substance/kg food |
